In US20070054887A1, “Methods for treating bladder dysfunction” (BioXell S.p.A, priority 2003, published 2007):

Assays:
human bladder cells = assay: inhibition of basal human bladder cell growth; assay type: cell-based; conditions: Homo sapiens
bcl-2 = assay: Bcl-2 protein expression in hBC by immunocytochemistry; assay type: cell-based, human; conditions: Compound A 10 nM, alone and in the presence of KGF (10 ng/ml) or testosterone (10 nM); FIG. 6
Description: After incubation with the indicated stimuli, slides were washed twice with PBS pH 7.4 and fixed in 3.7% paraformaldehyde in PBS for 15 min at room temperature, followed by permeabilization in 3.7% paraformaldehyde in PBS, containing 0.1% Triton X-100 for 15 min at room temperature. Anti-Bcl-2 mAb (1:40) diluted in PBS containing 2% BSA was added to the slides and incubated overnight at 4° C. Slides were washed three times (5 min) in PBS and incubated 45 min at room temperature with 2% BSA-PBS, containing the secondary antibody (dilution 1:1000). After three washes in PBS, the slides were examined with a phase contrast microscope (Nikon mocrophot-FX microscopes; Nikon, Kogaku, Tokyo, Japan). Slides lacking the primary antibody or stained with the corresponding non-immune serum served as controls.

BOO rats = assay: bladder outlet obstruction (BOO) rat model: cystometry and bladder weight; assay type: in vivo, Sprague-Dawley rats; conditions: 150 ug/kg/daily over 2 weeks
Description: Female Sprague-Dawley rats, weighing 200-250 g
Group A: BOO rats, treated with the vitamin D analogue over 2 weeks, beginning at day 1 after creation of the obstruction (n=12)
Group B: BOO rats, treated with vehicle over 2 weeks, beginning at day 1 after creation of the obstruction (n=12)
Group C: Sham operated rats, treated with the vitamin D analogue over 2 weeks, beginning at day 1 after surgery (n=12)
a) Cystometry (˜18 hours after last administration of the drug/vehicle, 12 hours after removal of the obstructing ligature) under conscious conditions.
The bladder and urethrovesical junction were exposed through a lower abdominal midline incision. A 0.9 mm metal rod was placed alongside the proximal urethra and a 3-0 silk ligature was tied tightly around the urethra and the rod, which was consequently removed. Sham surgery was performed accordingly, without placing the ligature. After 13 days the ligature was removed and a catheter was inserted into the bladder dome and tunneled subcutaneously.
The following morning after insertion of the catheter, the cystometric investigation was performed without any anesthesia or restraint in a metabolic cage. The amount of voided urine was measured by means of a fluid collector, connected to a force displacement transducer. The bladder was continuously filled with saline at room temperature. The catheter was also connected to a pressure transducer. After a stabilization period of 30-60 minutes, when reproducible voiding patterns are achieved, the following parameters were recorded over a period of 30 min: Basal bladder pressure, micturition pressure, threshold pressure, micturition interval and volume, and non-voiding contractions. The amount of residual urine was investigated manually 3 times, at the end of the cystometry. Bladder capacity was calculated based on the measured values.
The validated bladder outlet obstruction rat model described above was used to test the ability of vitamin D3 analogues to control and treat bladder dysfunction. The objective was to evaluate whether a vitamin D3 analogue (1-alpha-fluoro-25-hydroxy-16,23e-diene-26,27-bishomo-20-epi-cholecalciferol-Compound “A”) at the dose of 150 ug/kg/daily can prevent bladder hypertrophy and bladder dysfunction such as bladder overactivity.
In this model a ligature was surgically placed around the outlet of the catheterized bladder, so that when the catheter was removed, the bladder experienced increased urethral resistance. The rats underwent continuous cystometry to evaluate bladder function. In addition the contractile properties of isolated bladder preparation in response to nerve stimulation and exogenous stimuli in vitro were investigated under electrical field stimulation (EFS).

SMILES: C=C1/C(=C\C=C2/CCC[C@]3(C)C([C@@H](C)C/C=C/C(O)(CC)CC)=CC[C@@H]23)C[C@@H](O)C[C@@H]1F [Compound A, 1-alpha-fluoro-25-hydroxy-16,23E-diene-26,27-bishomo-20-epi-cholecalciferol]
- IC50 (human bladder cells): 6.31 pM
- bcl-2 expression (percentage of bcl-2 stained cells) (bcl-2): significantly inhibits
- spontaneous non-voiding contraction amplitude (BOO rats; versus vehicle): significant differences versus vehicle
- spontaneous non-voiding contraction frequency (BOO rats; versus vehicle): significant differences versus vehicle
- micturition pressure (BOO rats; versus vehicle, FIG. 19): significant differences versus vehicle
- bladder weight (BOO rats; FIG. 16): slight decrease
- residual urine (BOO rats; FIG. 20): absent
